# What was measured:
# Assay type in all cases: functional
# IGROV-1 = test: Cytotoxicity against human IGROV1 cells assessed as cell growth at 10^-7 M after 48 hrs by SRB assay relative to control; settings: IGROV-1, 48 h, read-out: Activity
# BT-549 = test: Cytotoxicity against human BT549 cells assessed as cell growth at 10^-7 M after 48 hrs by SRB assay relative to control; settings: BT-549, 48 h, read-out: Activity
# ACHN = test: Cytotoxicity against human ACHN cells after 48 hrs by SRB assay
# [1] = Cytotoxicity against human HCT116 cells after 48 hrs by SRB assay; settings: HCT-116, 48 h; for CC50: read-out: LC50 (the source's name)
# HOP-62 = test: Cytotoxicity against human HOP62 cells assessed as cell growth at 10^-6 M after 48 hrs by SRB assay relative to control; settings: HOP-62, 48 h, read-out: Activity
# SK-MEL-2 [2] = test: Cytotoxicity against human SK-MEL-2 cells assessed as cell growth at 10^-6 M after 48 hrs by SRB assay relative to control; settings: SK-MEL-2, 48 h, read-out: Activity
# [3] = Cytotoxicity against human OVCAR8 cells assessed as cell growth at 10^-4 M after 48 hrs by SRB assay relative to control; settings: OVCAR-8, 48 h, read-out: Activity
# 786-0 [4] = test: Cytotoxicity against human 786-0 cells after 48 hrs by SRB assay; settings: 786-0, 48 h
# SK-MEL-5 = test: Cytotoxicity against human SK-MEL-5 cells assessed as cell growth at 10^-6 M after 48 hrs by SRB assay relative to control; settings: SK-MEL-5, 48 h, read-out: Activity
# SF-295 [5] = test: Cytotoxicity against human SF295 cells assessed as cell growth at 10^-6 M after 48 hrs by SRB assay relative to control; settings: SF-295, 48 h, read-out: Activity
# NCI-H322M = test: Cytotoxicity against human NCI-H322M cells after 48 hrs by SRB assay
# [6] = Cytotoxicity against human OVCAR5 cells assessed as cell growth at 10^-8 M after 48 hrs by SRB assay relative to control; settings: OVCAR-5, 48 h, read-out: Activity
# [7] = Cytotoxicity against human SKOV3 cells assessed as cell growth at 10^-7 M after 48 hrs by SRB assay relative to control; settings: SK-OV-3, 48 h, read-out: Activity
# SK-MEL-28 = test: Cytotoxicity against human SK-MEL-28 cells assessed as cell growth at 10^-7 M after 48 hrs by SRB assay relative to control; settings: SK-MEL-28, 48 h, read-out: Activity
# MDA-MB-435 = test: Cytotoxicity against human MDA-MB-435 cells assessed as cell growth at 10^-8 M after 48 hrs by SRB assay relative to control; settings: MDA-MB-435, 48 h, read-out: Activity
# [8] = Cytotoxicity against human UO31 cells assessed as cell growth at 10^-8 M after 48 hrs by SRB assay relative to control; settings: UO-31, 48 h, read-out: Activity
# LOX IMVI = test: Cytotoxicity against human LOXIMVI cells after 48 hrs by SRB assay
# [9] = Cytotoxicity against human OVCAR5 cells assessed as cell growth at 10^-4 M after 48 hrs by SRB assay relative to control; settings: OVCAR-5, 48 h, read-out: Activity
# [10] = Cytotoxicity against human OVCAR4 cells assessed as cell growth at 10^-6 M after 48 hrs by SRB assay relative to control; settings: OVCAR-4, 48 h, read-out: Activity
# SF-539 = test: Cytotoxicity against human SF539 cells assessed as cell growth at 10^-8 M after 48 hrs by SRB assay relative to control; settings: SF-539, 48 h, read-out: Activity
# [11] = Cytotoxicity against human NCI-ADR-RES cells after 48 hrs by SRB assay
# SNB-75 = test: Cytotoxicity against human SNB75 cells assessed as cell growth at 10^-8 M after 48 hrs by SRB assay relative to control; settings: SNB-75, 48 h, read-out: Activity
# SN12C = test: Cytotoxicity against human SN12C cells assessed as cell growth at 10^-8 M after 48 hrs by SRB assay relative to control; settings: read-out: Activity
# RXF 393 = test: Cytotoxicity against human RXF393 cells assessed as cell growth at 10^-6 M after 48 hrs by SRB assay relative to control; settings: RXF 393, 48 h, read-out: Activity
# K562 = test: Cytotoxicity against human K562 cells assessed as cell growth at 10^-6 M after 48 hrs by SRB assay relative to control; settings: K562, 48 h, read-out: Activity
# COLO 205 = test: Cytotoxicity against human COLO205 cells assessed as cell growth at 10^-4 M after 48 hrs by SRB assay relative to control; settings: COLO 205, 48 h, read-out: Activity
# SF-295 [12] = test: Cytotoxicity against human SF295 cells after 48 hrs by SRB assay; settings: SF-295, 48 h; for CC50: read-out: LC50 (the source's name)
# SK-MEL-2 [13] = test: Cytotoxicity against human SK-MEL-2 cells assessed as cell growth at 10^-7 M after 48 hrs by SRB assay relative to control; settings: SK-MEL-2, 48 h, read-out: Activity
# [14] = Cytotoxicity against human OVCAR3 cells assessed as cell growth at 10^-8 M after 48 hrs by SRB assay relative to control; settings: OVCAR-3, 48 h, read-out: Activity
# [15] = Cytotoxicity against human UO31 cells assessed as cell growth at 10^-7 M after 48 hrs by SRB assay relative to control; settings: UO-31, 48 h, read-out: Activity
# MDA-MB-468 = test: Cytotoxicity against human MDA-MB-468 cells assessed as cell growth at 10^-7 M after 48 hrs by SRB assay relative to control; settings: MDA-MB-468, 48 h, read-out: Activity
# HL-60(TB) = test: Cytotoxicity against human HL-60(TB) cells assessed as cell growth at 10^-8 M after 48 hrs by SRB assay relative to control; settings: HL-60, 48 h, read-out: Activity
# 786-0 [16] = test: Cytotoxicity against human 786-0 cells assessed as cell growth at 10^-4 M after 48 hrs by SRB assay relative to control; settings: 786-0, 48 h, read-out: Activity
# [17] = Cytotoxicity against human UACC62 cells after 48 hrs by SRB assay; settings: UACC-62, 48 h
# HCC 2998 = test: Cytotoxicity against human HCC2998 cells after 48 hrs by SRB assay; settings: HCC 2998, 48 h; for CC50: read-out: LC50 (the source's name)
smiles,measurement,setting,value
COc1ccc(CCN2COc3c([C@@H](C)CCC=C(C)C)ccc(C)c3C2)cc1OC,growth at 0.1 µM,IGROV-1,97%
same,growth at 0.1 µM,BT-549,91%
same,GI50,ACHN,6.11 µM
same,LC50 (concentration killing 50% of cells),ACHN,48.1 µM
same,TGI,ACHN,20.2 µM
same,GI50,[1],2.17 µM
same,TGI,[1],4.94 µM
same,CC50,[1],13.3 µM
same,growth at 1 µM,HOP-62,97%
same,growth at 1 µM,SK-MEL-2 [2],94%
same,growth at 100 µM,[3],-54%
same,LC50,786-0 [4],8.72 µM
same,growth at 1 µM,SK-MEL-5,90%
same,growth at 1 µM,SF-295 [5],80%
same,GI50,NCI-H322M,3.03 µM
same,LC50,NCI-H322M,55.7 µM
same,TGI,NCI-H322M,11.6 µM
same,growth at 0.01 µM,[6],92%
same,growth at 0.1 µM,[7],98%
same,growth at 0.1 µM,SK-MEL-28,84%
same,growth at 0.01 µM,MDA-MB-435,97%
same,growth at 0.01 µM,[8],86%
same,GI50,LOX IMVI,1.77 µM
same,LC50 (concentration killing 50% of cells),LOX IMVI,7.96 µM
same,TGI,LOX IMVI,3.75 µM
same,growth at 100 µM,[9],-100%
same,growth at 1 µM,[10],85%
same,growth at 0.01 µM,SF-539,95%
same,GI50,[11],2.96 µM
same,"LC50 (lethal concentration, 50% cell kill)",[11],35.2 µM
same,TGI,[11],9.51 µM
same,growth at 0.01 µM,SNB-75,79%
same,growth at 0.01 µM,SN12C,86%
same,growth at 1 µM,RXF 393,76%
same,growth at 1 µM,K562,98%
same,growth at 100 µM,COLO 205,-100%
same,GI50,SF-295 [12],2.02 µM
same,TGI,SF-295 [12],6.56 µM
same,CC50,SF-295 [12],29 µM
same,growth at 0.1 µM,SK-MEL-2 [13],85%
same,growth at 0.01 µM,[14],95%
same,growth at 0.1 µM,[15],92%
same,growth at 0.1 µM,MDA-MB-468,60%
same,growth at 0.01 µM,HL-60(TB),98%
same,growth at 100 µM,786-0 [16],-100%
same,GI50,[17],3.48 µM
same,LC50 (concentration killing 50% of cells),[17],38.7 µM
same,TGI,[17],14.6 µM
same,GI50,HCC 2998,1.59 µM
same,TGI,HCC 2998,2.96 µM
same,CC50,HCC 2998,5.49 µM
CC(C)=CCC[C@H](C)c1ccc(C)c2c1OCN(CC1CCNCC1)C2,growth at 0.1 µM,IGROV-1,107%
same,growth at 0.1 µM,BT-549,87%
same,GI50,ACHN,15.3 µM
same,LC50 (concentration killing 50% of cells),ACHN,58.9 µM
same,TGI,ACHN,30 µM
same,GI50,[1],7.17 µM
same,TGI,[1],21.7 µM
same,CC50,[1],56.3 µM
same,growth at 1 µM,HOP-62,90%
same,growth at 1 µM,SK-MEL-2 [2],120%
same,growth at 100 µM,[3],-85%
same,GI50,786-0 [4],12.1 µM
same,LC50,786-0 [4],56.9 µM
same,TGI,786-0 [4],26.3 µM
same,growth at 1 µM,SK-MEL-5,96%
same,growth at 1 µM,SF-295 [5],87%
same,GI50,NCI-H322M,19.4 µM
same,LC50,NCI-H322M,77.8 µM
same,TGI,NCI-H322M,38.8 µM
same,growth at 0.01 µM,[6],88%
same,growth at 0.1 µM,[7],98%
same,growth at 0.1 µM,SK-MEL-28,101%
same,growth at 0.01 µM,MDA-MB-435,100%
same,growth at 0.01 µM,[8],95%
same,GI50,LOX IMVI,5.87 µM
same,LC50 (concentration killing 50% of cells),LOX IMVI,54.6 µM
same,TGI,LOX IMVI,20.2 µM
same,growth at 100 µM,[9],-90%
same,growth at 1 µM,[10],101%
same,growth at 0.01 µM,SF-539,91%
same,GI50,[11],16.8 µM
same,"LC50 (lethal concentration, 50% cell kill)",[11],71.8 µM
same,TGI,[11],34.8 µM
same,growth at 0.01 µM,SNB-75,92%
same,growth at 0.01 µM,SN12C,97%
same,growth at 1 µM,RXF 393,125%
same,growth at 1 µM,K562,93%
same,growth at 100 µM,COLO 205,-89%
same,GI50,SF-295 [12],15.9 µM
same,TGI,SF-295 [12],34.9 µM
same,CC50,SF-295 [12],76.5 µM
same,growth at 0.1 µM,SK-MEL-2 [13],111%
same,growth at 0.01 µM,[14],99%
same,growth at 0.1 µM,[15],94%
same,growth at 0.1 µM,MDA-MB-468,94%
same,growth at 0.01 µM,HL-60(TB),96%
same,growth at 100 µM,786-0 [16],-87%
same,GI50,[17],15.5 µM
same,LC50 (concentration killing 50% of cells),[17],57.6 µM
same,TGI,[17],29.9 µM
same,GI50,HCC 2998,3.74 µM
same,TGI,HCC 2998,12.3 µM
same,CC50,HCC 2998,37.5 µM
CC(C)=CCC[C@H](C)c1ccc(C)c(CNCC2CCNCC2)c1O,growth at 0.1 µM,IGROV-1,97%
same,growth at 0.1 µM,BT-549,89%
same,GI50,ACHN,4.68 µM
same,LC50 (concentration killing 50% of cells),ACHN,> 25 µM
same,TGI,ACHN,12.7 µM
same,GI50,[1],5.08 µM
same,TGI,[1],12.4 µM
same,CC50,[1],> 25 µM
same,growth at 1 µM,HOP-62,97%
same,growth at 1 µM,SK-MEL-2 [2],116%
same,growth at 100 µM,[3],-60%
same,GI50,786-0 [4],5.01 µM
same,LC50,786-0 [4],> 25 µM
same,TGI,786-0 [4],11.5 µM
same,growth at 1 µM,SK-MEL-5,93%
same,growth at 1 µM,SF-295 [5],86%
same,GI50,NCI-H322M,7.02 µM
same,LC50,NCI-H322M,> 25 µM
same,TGI,NCI-H322M,> 25 µM
same,growth at 0.01 µM,[6],96%
same,growth at 0.1 µM,[7],93%
same,growth at 0.1 µM,SK-MEL-28,100%
same,growth at 0.01 µM,MDA-MB-435,100%
same,growth at 0.01 µM,[8],88%
same,GI50,LOX IMVI,3.85 µM
same,LC50 (concentration killing 50% of cells),LOX IMVI,16.5 µM
same,TGI,LOX IMVI,7.96 µM
same,growth at 100 µM,[9],27%
same,growth at 1 µM,[10],101%
same,growth at 0.01 µM,SF-539,96%
same,GI50,[11],19.8 µM
same,"LC50 (lethal concentration, 50% cell kill)",[11],> 25 µM
same,TGI,[11],> 25 µM
same,growth at 0.01 µM,SNB-75,90%
same,growth at 0.01 µM,SN12C,92%
same,growth at 1 µM,RXF 393,95%
same,growth at 1 µM,K562,91%
same,growth at 100 µM,COLO 205,-93%
same,GI50,SF-295 [12],3.31 µM
same,TGI,SF-295 [12],7.53 µM
same,CC50,SF-295 [12],17.1 µM
same,growth at 0.1 µM,SK-MEL-2 [13],97%
same,growth at 0.01 µM,[14],105%
same,growth at 0.1 µM,[15],86%
same,growth at 0.1 µM,MDA-MB-468,77%
same,growth at 0.01 µM,HL-60(TB),86%
same,growth at 100 µM,786-0 [16],-47%
same,GI50,[17],4.24 µM
same,LC50 (concentration killing 50% of cells),[17],16.4 µM
same,TGI,[17],8.32 µM
same,GI50,HCC 2998,4.13 µM
same,TGI,HCC 2998,7.73 µM
same,CC50,HCC 2998,14.4 µM
